{"source": "patent US20190151294A1", "about": "“TREATMENT OF ALCOHOLISM AND DEPRESSION AND/OR DYSPHORIC MOOD USING IBUDILAST” (MEDICINOVA, INC., priority 2016, published 2019)", "key": {"[1]": {"tested_on": "non-treatment-seeking individuals with AUD", "assay": "Phase 1b study: intravenous alcohol administration (IV-A) challenge, with post-hoc BDI analysis", "format": "in vivo, human", "settings": "for Response to Alcohol Challenge (alcohol-induced stimulation, positive affect, negative affect, liking, wanting): post-hoc, subjects with higher BDI scores at baseline, vs placebo and vs lower BDI subjects", "protocol": "Infusion was performed by the study nurse under the supervision of the study physician using a 6% alcohol IV infusion. An alcohol infusion nomogram provides a formula for obtaining the rate of infusion based on the participant's gender and weight. Thus, male participants' were infused at a rate determined by the following formula: 0.166-ml/minute×weight in kilogram while the rate of infusion for female participants was calculated as 0.126-ml/minute×weight in kilograms.\nBreath alcohol content (BrAC) was monitored every 3 to 5 minutes during infusion until target BrAC's of 0.02 g·dl, 0.04 g·dl, 0.06 g·dl, and 0.08 g·dl were obtained, following which infusion rates were reduced to half the original rate to maintain stable BrAC levels during the testing phase. The following parameters were assessed prior to intravenous alcohol challenge and again at each target BrAC: (1) Biphasic Alcohol Effects Scale (BAES) to obtain a reliable and valid measure of alcohol's stimulant and sedative effects; (2) Alcohol Urge Questionnaire (AUQ)—an 8-item scale where subjects rate their craving for alcohol at the present moment, which is appropriate for examining the level of the urge to drink alcohol; (3) Alcohol Ratings Scale, which captures “liking” and “wanting” of alcohol”; (4) The Profile of Mood States (POMS; McNair 1971) which was used to record positive and negative mood states; and (5) Heart Rate and Blood Pressure levels measure at baseline and at each target level of BrAC.\nTo probe the possible relationship between MN-166, mood, and subjective responses to alcohol, further analysis was performed. The following variables were explored in all participants: • 1. Baseline scores for depressive symptomology (as measured by the Beck Depression Inventory (BDI)) were collected. • 2. Responses to Alcohol Challenge (e.g., alcohol-induced stimulation, positive affect, negative affect, “liking,” and “wanting”) were compared between subjects with higher BDI scores (more depressive symptomology) and dysphoria and subjects with lower BDI scores (less depressive symptomology) and dysphoria."}, "[2]": {"tested_on": "non-treatment-seeking individuals with AUD", "assay": "Phase 1b study: cue reactivity assessment (CR)", "format": "in vivo, human", "settings": "50 mg BID", "description": "The present study also assessed the reactivity of participants to alcohol cues at each dose of medication such that participants served as their own controls. […] The CR assessments followed well-established procedures and participants received standardized instructions about the assessment as they became acclimated to the psychophysiological monitors.\nCR assessment sessions began with a 3-minute relaxation period, in which participants were asked to sit quietly and do nothing. Participants then held and smelled a glass of water for 3 minutes as a standard procedure to control for the effects of simple exposure to any potable liquid, followed by a second 3-minute relaxation period. Next, each participant held and smelled a glass of their preferred alcoholic beverage for three minutes. During each trial, the participant was asked to sniff the beverage for 5 consecutive seconds upon hearing a tone sound. Thirteen tone sounds were administered during each 3-minute block of time. […]\nFollowing each 3 minute exposure to alcohol, each participant rated his/her urge to drink alcohol using the 11-point Likert scale (e.g., “none at all” to “extremely strong urge”). Heart rate (beats per minute; BPM) and blood pressure (systolic, diastolic, and mean arterial pressure [MAP]) were monitored continuously using a Dynamap Adult Vital Signs Monitor and values were averaged over each 3-minute trial. […]"}, "[3]": {"tested_on": "high-alcohol-drinking (HAD1) rats", "assay": "Voluntary ethanol consumption in high-alcohol-drinking (HAD1) rats", "format": "in vivo, rat", "settings": "for dose dependence of effect on ethanol intake (2-way mixed ANOVA): p<0.001", "protocol": "To perform the study, adult male P and HAD1 rats were randomly assigned to receive one of the following four doses of ibudilast—0 mg/Kg, 3 mg/Kg, 6 mg/Kg, or 9 mg/Kg with eight rats assigned to each dose. Each dosing group was balanced to average a 2 h/day ethanol (15% v/v) intake. Water was concurrently available to the rats and Mazola corn oil was used as the vehicle.\nThe study was divided into four test phases. In the maintenance test phase rats in the treatment group were injected ibudilast subcutaneously (2 mL/kg s.c.), using standard solutions that deliver 3 mg/Kg, 6 mg/Kg or 9 mg/Kg of ibudilast, 60 min before each ethanol test session and the same dose of ibudilast was administered subcutaneously to the rats 8 hours later. Rats in the control group, however, are administered 2 mL/Kg Mazola corn oil subcutaneously. This protocol was carried out for 4 consecutive days. Following the maintenance test phase, is a two week no drug recovery phase during which rats are permitted access to ethanol and the amount of ethanol consumed by the rats was measured.\nThe recovery phase is followed by a two week forced ethanol abstinence phase. Following forced abstinence, the effects of ibudilast on ethanol drinking were examined by re-introducing ethanol to rats for a period of 5 consecutive days (i.e., the Relapse Test phase). Each animal received the same dose of ibudilast during maintenance and relapse test phases."}}, "data": [{"smiles": "CC(C)C(=O)c1c(C(C)C)nn2ccccc12", "note": "[ibudilast, Ibudilast]", "values": [{"measurement": "subjective response to alcohol during the infusion", "setting": "[1]; 50 mg BID, day 6 IV alcohol", "value": "did not affect"}, {"measurement": "Response to Alcohol Challenge (alcohol-induced stimulation, positive affect, negative affect, liking, wanting)", "setting": "[1]; listed as MN-166", "value": "less positive and more negative responses"}, {"measurement": "Response to Alcohol Challenge (alcohol-induced stimulation, positive affect, negative affect, liking, wanting)", "setting": "[1]; negative responses to alcohol", "value": "more negative"}, {"measurement": "Response to Alcohol Challenge (alcohol-induced stimulation, positive affect, negative affect, liking, wanting)", "setting": "[1]; positive responses to alcohol", "value": "less positive,"}, {"measurement": "cue-induced AUQ craving", "setting": "[2]; day 6 alcohol cue-exposure", "value": "did not affect"}, {"measurement": "positive mood during cue reactivity", "setting": "[2]; p=0.07", "value": "increased positive mood"}, {"measurement": "reduction of ethanol intake", "setting": "[3]; HAD1 rats, 5-day Relapse Test phase", "value": "about 50%"}, {"measurement": "dose dependence of effect on ethanol intake (2-way mixed ANOVA)", "setting": "[3]; HAD1 rats, Relapse Test phase", "value": "dose dependent reduction in ethanol intake"}, {"measurement": "reduction of ethanol intake", "setting": "[3]; HAD1 rats, maintenance test phase, 4 days, s.c. twice daily, vs vehicle", "value": "approximately 50%"}, {"measurement": "dose dependence of effect on ethanol intake (2-way mixed ANOVA)", "setting": "[3]; HAD1 rats, maintenance test phase, 0, 3, 6, 9 mg/Kg", "value": "dose dependent reduction of ethanol intake"}, {"measurement": "time course of reduced ethanol intake (Dose x Day interaction)", "setting": "[3]; HAD1 rats, p=0.023, data not shown", "value": "most robust on the first day"}, {"measurement": "24-hour food intake", "setting": "[3]; HAD rats, especially at the 9 mg/Kg dose, effect diminished over the 5-day test phase", "value": "transitory reductions"}]}]}
